From patent EP0326331B1, “Substituted quinolines and cinnolines” (Dow AgroSciences LLC, priority 1988, dated 1989)

Experiments:
Assay type in all cases: in vivo
[1] = system: Septoria tritici (leaf blotch); assay: Test 1 greenhouse foliar spray screen, leaf blotch on wheat; details: disease control rating, foliar spray on wheat, 400 ppm (+++ at 100 ppm)
[2] = system: Pyricularia oryzae (rice blast); assay: whole plant or invertebrate; details: disease control rating, foliar spray on rice, 400 ppm (+++ at 100 ppm)
[3] = system: Botrytis cinerea (gray mold); assay: Test 1 greenhouse foliar spray screen, gray mold on grape berries; details: disease control rating, spray on grape berries, 400 ppm (+++ at 100 ppm)
[4] = system: melon aphids (Aphis gossypii Glover); assay: Mite/insect screen, MA; details: percent mortality, SAW, SM & MA RATE 200 PPM; for mortality at 200 ppm: Aphis gossypii, read-out: MA RESULTS %
How it was run: (§1)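 Foliar spray to runoff (10 psi), 1 h drying; aqueous dilutions from acetone/alcohol emulsifier stock. Mortality (%) after standard exposure.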

[5] = system: Puccinia recondita tritici (leaf rust); assay: Test 1 greenhouse foliar spray screen, leaf rust on wheat; details: disease control rating, foliar spray on wheat, 400 ppm (+++ at 100 ppm)
[6] = system: southern armyworm (Spodopetra eridania Cramer); assay: Mite/insect screen, SAW; details: percent mortality, SAW, SM & MA RATE 200 PPM; for mortality at 200 ppm: Spodoptera eridania, read-out: SAW RESULTS %
How it was run: as §1

[7] = system: Cercospora beticola (leaf spot); assay: Test 1 greenhouse foliar spray screen, leaf spot on sugar beet; details: disease control rating, foliar spray on sugar beet, 400 ppm (+++ at 100 ppm)
[8] = system: Venturia inaequalis (apple scab); assay: Test 1 greenhouse foliar spray screen, apple scab on apple seedling; details: disease control rating, foliar spray on apple seedling, 400 ppm (+++ at 100 ppm)
[9] = system: Erysiphe graminis tritici (powdery mildew); assay: Test 1 greenhouse foliar spray screen, powdery mildew on wheat; details: disease control rating, foliar spray on wheat, 400 ppm (+++ at 100 ppm)
[10] = system: Twospotted spider mites (Tetranychus urticae Koch); assay: Mite/insect screen, SM; details: for mortality at 200 ppm: Tetranychus urticae, read-out: SM RESULTS %; for mortality at 200 ppm / SM RESULTS %: percent mortality, SAW, SM & MA RATE 200 PPM; for activity as miticides: summary statement in the description
How it was run: as §1

[11] = system: Pseudoperonospora cubensis (downy mildew); assay: Test 1 greenhouse foliar spray screen, downy mildew on squash; details: for DOWN MDEW: disease control rating, foliar spray on squash, 400 ppm (+++ at 100 ppm)
corn rootworm = assay: Mite/insect screen, CRW; details: percent mortality, CRW RATE 12.00 PPM; for mortality at 12 ppm: read-out: CRW RESULTS %
How it was run: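 Following dissolution in equal parts acetone and alcohol with 23 g/L and 13 g/L emulsifier blends and dilution with water, test solutions were scored for percent mortality at the end of standard exposures.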

SMILES | LEAF BLOT [1] | RICE BLAST [2] | GRAY MOLD [3] | mortality at 200 ppm [4] [%] | LEAF RUST [5] | mortality at 200 ppm [6] [%] | LEAF SPOT [7] | APPL SCAB [8] | POWD MDEW [9] | mortality at 200 ppm [10] [%] | activity as miticides [10] | DOWN MDEW [11] | mortality at 12 ppm (corn rootworm) [%] | MA RESULTS % [4] [%] | SAW RESULTS % [6] [%] | SM RESULTS % [10] [%] | activity against downy mildew ([11]; summary statement in the description) | CRW RESULTS % (corn rootworm) [%]
Fc1cccc2c(NCCc3ccc(Br)cc3)ccnc12 [Example 94, N-[2-(4-bromophenyl)ethyl]-8-fluoro-4-quinolinamine] | + (20-89% control at 400 ppm) | +++ (90-100% control at 100 ppm) | - (0-19% control at 400 ppm) | 0 | +++ (90-100% control at 100 ppm) | 0 | +++ (90-100% control at 100 ppm) | - (0-19% control at 400 ppm) | + (20-89% control at 400 ppm) | 0 | particularly excellent activity | +++ (90-100% control at 100 ppm) | 100 | – | – | – | – | –
Fc1cccc2c(NCCc3cccc(C(F)(F)F)c3)ccnc12 [Example 95, 8-fluoro-N-[2-[3-(trifluoromethyl)phenyl]ethyl]-4-quinolinamine] | +++ (90-100% control at 100 ppm) | ++ (90-100% control at 400 ppm) | + (20-89% control at 400 ppm) | 0 | +++ (90-100% control at 100 ppm) | 20 | + (20-89% control at 400 ppm) | + (20-89% control at 400 ppm) | + (20-89% control at 400 ppm) | 0 | – | +++ (90-100% control at 100 ppm) | 0 | 0 | 40 | 0 | particularly excellent activity | 0
Fc1cccc2c(NCCc3ccc(Cl)cc3)ccnc12 [Example 96, N-[2-(4-chlorophenyl)ethyl)-8-fluoro-4-quinolinamine] | +++ (90-100% control at 100 ppm) | +++ (90-100% control at 100 ppm) | - (0-19% control at 400 ppm) | 0 | +++ (90-100% control at 100 ppm) | 100 | +++ (90-100% control at 100 ppm) | - (0-19% control at 400 ppm) | + (20-89% control at 400 ppm) | 0 | particularly excellent activity | +++ (90-100% control at 100 ppm) | 0 | 0 | 100 | 0 | – | 0
Fc1cccc2c(NCCc3ccc(Cl)cc3Cl)cc(Cl)nc12 [Example 98, 2-chloro-N-[2-(2,4-dichlorophenyl)ethyl]-8-fluoro-4-quinolinamine] | - (0-19% control at 400 ppm) | + (20-89% control at 400 ppm) | - (0-19% control at 400 ppm) | 0 | ++ (90-100% control at 400 ppm) | 0 | - (0-19% control at 400 ppm) | - (0-19% control at 400 ppm) | - (0-19% control at 400 ppm) | 0 | – | ++ (90-100% control at 400 ppm) | 0 | – | – | – | – | –
FC(F)(F)c1cccc2c(NCCc3ccccc3)ccnc12 [Example 99, N-(2-phenylethyl)-8-(trifluoromethyl)-4-quinolinamine] | - (0-19% control at 400 ppm) | ++ (90-100% control at 400 ppm) | - (0-19% control at 400 ppm) | 0 | +++ (90-100% control at 100 ppm) | 0 | + (20-89% control at 400 ppm) | - (0-19% control at 400 ppm) | - (0-19% control at 400 ppm) | 0 | – | +++ (90-100% control at 100 ppm) | 0 | – | – | – | – | –
